Patent US20220117938A1, “COMBINATON THERAPY WITH A DON PRODRUG AND AN IMMUNE CHECKPOINT INHIBITOR” (DRACEN PHARMACEUTICALS, INC., priority 2019, published 2022)

Key:
4T1 tumors = experiment: Anti-tumor efficacy of Compound 1 with and without anti-PD-1 in the 4T1 murine mammary cancer model (Example 2A); format: in vivo, Mus musculus; conditions: for Tumor volume (mm^3), Mean ± SEM: n = 8; for ILS (%) / MST: endpoint tumor volume 2000 mm^3; for RTV at day 25 / T/C (%) / TGI (%) / Tumor Size (mm^3) at day 25, Mean ± SEM: day 25
Method: Female BALB/c mice were inoculated subcutaneously at the mammary fat pat with 4T1 cells for tumor development. Six days after tumor inoculation, 48 mice with tumor size ranging from 49-88 mm^3 (average tumor size 59 mm^3) were selected and assigned into 6 groups using stratified randomization with 8 mice per group based upon their tumor volumes. The treatments were started from the day of randomization (defined as D0), Group 1 was treated with Vehicle (Tween 80:Ethanol:Saline—5:5:90 v/v/v), s.c. q.d.×14, Group 2 was treated with anti-PD-1 10 mg/kg i.p. q4d×4, Group 3 was treated with Compound 1 3 mg/kg s.c. q.d.×5D followed by 1 mg/kg s.c. q.d.×9D, Group 4 was treated with Compound 13 mg/kg s.c. q.d.×5D followed by 1 mg/kg s.c. q.d.×9D+anti-PD-1 10 mg/kg i.p. q4d×4, Group 5 was treated with Compound 11 mg/kg s.c. q.d.×14D and Group 6 was treated with Compound 11 mg/kg s.c. q.d.×14D+anti-PD-1 10 mg/kg i.p. q4d×4. The tumor sizes were measured three times per week during the treatment. The entire study was terminated on D42 after start of the treatment. In this study anti mPD-1 (catalog number BE0146) was used.
Animal Species: Mus musculus; Strain: BALB/c; Age: 6-8 weeks; Sex: female; Body weight (at treatment start): 20-24 g.
The 4T1 tumor cells were maintained in vitro as a monolayer culture in RPMI-1640 medium supplemented with 10% heat inactivated fetal bovine serum and 100 μg/mL penicillin streptomycin at 37° C. in an atmosphere of 5% CO2 in air. The tumor cells were routinely subcultured twice weekly by trypsin-EDTA treatment. The cells growing to a confluency around 70%-80% were harvested and counted for tumor inoculation. The cultured 4T1 cells were harvested, re-suspended in base medium at a density of 2×10^6 cells/mL with viability >90%. Each mouse was inoculated subcutaneously at the […] with 1×10^5 in 0.05 ml base medium for tumor development.
The treatments were started on day 6 after tumor inoculation when the tumor size reached 49-88 mm^3 (average tumor size 59 mm^3). Each group consisted of 8 tumor bearing mice. The testing article was administrated at the dosing volume indicated to the mice according to the predetermined regimen as shown Table 2A-1. Testing article formulations were prepared according to standard procedures. Details regarding tumor measurements and endpoints, and statistical analysis are provided in EXAMPLE 3.
Tumor sizes were measured three times a week in two dimensions using a caliper, and the volume expressed in mm^3 using the formula: V=0.5 a×b^2 where a and b are the long and short diameters of the tumor, respectively. The tumor sizes were then used for the calculations of both tumor growth inhibition (TGI) and T/C values.
TGI is calculated for each group using the formula: […]
TVTreatment_DayN is the average tumor volume of a treatment group on a given day, TVTreatment_Day0 is the average tumor volume of the treatment group on the first day of treatment, TVVehicle_DayN is the average tumor volume of the vehicle control group on a given day, and TVVehicle_Day0 is the average tumor volume of the vehicle group on the first day of treatment.
The T/C value (in percent) is an indication of antitumor effectiveness, T/C (%)=RTVTreatment/RTVControl×100% (RTVTreatment: the mean RTV of the treatment group; RTVControl: the mean RTV of the vehicle treated group). RTV (relative tumor volume)=TVDayN/TVDay0. TVDayN and TVDay0 is the tumor volume on day N and Day 0 respectively. T/C (%)≤42% is considered as significant antitumor activity and <10% is considered as highly significant antitumor activity by the National Cancer Institute criteria.
Animal survival curve: When an individual animal reached to the termination endpoint (TV>2000 mm^3), the mouse was euthanized. The time from treatment initiation to the termination was deemed as its survival time. Survival curve was plotted by Kaplan-Meier method. Median survival time (MST) was calculated for each group. […]

CT26 tumors = experiment: CT26 model, Compound 1 5-day ON 2-day OFF with and without anti-PD-1 (Example 2B, similar experiment, Tables 2B-5/2B-6); format: in vivo, mice; conditions: for Cures / Median Survival: 5-day ON 2-day OFF; for Mean Tumor Vol / TGI: Day 15; for BWC: mouse, in vivo
[1] = 0.15 mg/kg 5-day ON 2-day OFF x 4 cycles
[2] = 0.5 mg/kg 5-day ON 2-day OFF x 4 cycles
[3] = 1.4 mg/kg 5-day ON 2-day OFF x 4 cycles

## CC(=O)N[C@@H](Cc1c[nH]c2ccccc12)C(=O)N[C@@H](CCC(=O)C=[N+]=[N-])C(=O)OC(C)C [Compound 1, Isopropyl (S)-2-((S)-2-acetamido-3-(1H-indol-3-yl)propanamido)-6-diazo-5-oxohexanoate]
4T1 tumors; 1 mg/kg qdx14 s.c., Day 0
  Tumor volume (mm^3), Mean ± SEM: 58 ± 3 mm^3
4T1 tumors; 1 mg/kg qdx14 s.c., Day 2
  Tumor volume (mm^3), Mean ± SEM: 75 ± 4 mm^3
4T1 tumors; 1 mg/kg qdx14 s.c., Day 4
  Tumor volume (mm^3), Mean ± SEM: 85 ± 4 mm^3
4T1 tumors; 1 mg/kg qdx14 s.c., Day 7
  Tumor volume (mm^3), Mean ± SEM: 108 ± 4 mm^3
4T1 tumors; 1 mg/kg qdx14 s.c., Day 9
  Tumor volume (mm^3), Mean ± SEM: 130 ± 10 mm^3
4T1 tumors; 1 mg/kg qdx14 s.c., Day 11
  Tumor volume (mm^3), Mean ± SEM: 158 ± 12 mm^3
4T1 tumors; 1 mg/kg qdx14 s.c., Day 14
  Tumor volume (mm^3), Mean ± SEM: 172 ± 11 mm^3
4T1 tumors; 1 mg/kg qdx14 s.c., Day 16
  Tumor volume (mm^3), Mean ± SEM: 215 ± 17 mm^3
4T1 tumors; 1 mg/kg qdx14 s.c., Day 18
  Tumor volume (mm^3), Mean ± SEM: 300 ± 23 mm^3
4T1 tumors; 1 mg/kg qdx14 s.c., Day 21
  Tumor volume (mm^3), Mean ± SEM: 441 ± 31 mm^3
4T1 tumors; 1 mg/kg qdx14 s.c., Day 23
  Tumor volume (mm^3), Mean ± SEM: 622 ± 44 mm^3
4T1 tumors; 1 mg/kg qdx14 s.c., Day 25
  Tumor volume (mm^3), Mean ± SEM: 782 ± 53 mm^3
4T1 tumors; 3 mg/kg qdx5 then 1 mg/kg qdx9 s.c., Day 0
  Tumor volume (mm^3), Mean ± SEM: 59 ± 3 mm^3
4T1 tumors; 3 mg/kg qdx5 then 1 mg/kg qdx9 s.c., Day 2
  Tumor volume (mm^3), Mean ± SEM: 72 ± 4 mm^3
4T1 tumors; 3 mg/kg qdx5 then 1 mg/kg qdx9 s.c., Day 4
  Tumor volume (mm^3), Mean ± SEM: 76 ± 3 mm^3
4T1 tumors; 3 mg/kg qdx5 then 1 mg/kg qdx9 s.c., Day 7
  Tumor volume (mm^3), Mean ± SEM: 80 ± 3 mm^3
4T1 tumors; 3 mg/kg qdx5 then 1 mg/kg qdx9 s.c., Day 9
  Tumor volume (mm^3), Mean ± SEM: 88 ± 6 mm^3
4T1 tumors; 3 mg/kg qdx5 then 1 mg/kg qdx9 s.c., Day 11
  Tumor volume (mm^3), Mean ± SEM: 113 ± 9 mm^3
4T1 tumors; 3 mg/kg qdx5 then 1 mg/kg qdx9 s.c., Day 14
  Tumor volume (mm^3), Mean ± SEM: 171 ± 12 mm^3
4T1 tumors; 3 mg/kg qdx5 then 1 mg/kg qdx9 s.c., Day 16
  Tumor volume (mm^3), Mean ± SEM: 245 ± 17 mm^3
4T1 tumors; 3 mg/kg qdx5 then 1 mg/kg qdx9 s.c., Day 18
  Tumor volume (mm^3), Mean ± SEM: 356 ± 27 mm^3
4T1 tumors; 3 mg/kg qdx5 then 1 mg/kg qdx9 s.c., Day 21
  Tumor volume (mm^3), Mean ± SEM: 565 ± 37 mm^3
4T1 tumors; 3 mg/kg qdx5 then 1 mg/kg qdx9 s.c., Day 23
  Tumor volume (mm^3), Mean ± SEM: 762 ± 62 mm^3
4T1 tumors; 3 mg/kg qdx5 then 1 mg/kg qdx9 s.c., Day 25
  Tumor volume (mm^3), Mean ± SEM: 1024 ± 75 mm^3
4T1 tumors; Compound 1 1 mg/kg
  ILS (%): 13.8%
  MST: 33.0 days
4T1 tumors; Compound 1 3/1 mg/kg
  ILS (%): 19.0%
  MST: 34.5 days
4T1 tumors; Cpd. 1 1 mg/kg
  RTV at day 25: 13.65 ± 1.13
  T/C (%): 46.10%
  TGI (%): 53.9%
  Tumor Size (mm^3) at day 25, Mean ± SEM: 782 ± 53 mm^3
4T1 tumors; Cpd. 1 3/1 mg/kg
  RTV at day 25: 17.45 ± 0.83
  T/C (%): 58.95%
  TGI (%): 41.05%
  Tumor Size (mm^3) at day 25, Mean ± SEM: 1024 ± 75 mm^3
CT26 tumors; Compound 1 0.15 mg/kg
  Cures: 0%
  Median Survival: 26 days
CT26 tumors; Compound 1 0.5 mg/kg
  Cures: 0%
  Median Survival: 36 days
CT26 tumors; Compound 1 1.4 mg/kg
  Cures: 0%
  Median Survival: 37 days
CT26 tumors; [1]
  Mean Tumor Vol: 188 ± 29 mm^3
  TGI: 76%
CT26 tumors; [2]
  Mean Tumor Vol: 150 ± 21 mm^3
  TGI: 88%
CT26 tumors; [3]
  Mean Tumor Vol: 106 ± 16 mm^3
  TGI: 91%
CT26 tumors; 0.15 mg/kg
  BWC: 7%
CT26 tumors; 0.5 mg/kg
  BWC: 1.4%
CT26 tumors; 1.4 mg/kg
  BWC: −11%
